Data reported in patent US20040235742A1, “Water channel opener compositions and medicinal compositions for ophthalmic use” (SANTEN PHARMACEUTICAL CO., LTD., priority 1999, published 2004).

How the values were obtained:
sodium-potassium ATPase = conditions: olfactory tissue; Life Sciences, 20, 1051-1062 (1977); cited from earlier work
lens aldose reductase = target: T1, lens aldose reductase (Homo sapiens, UniProt P15121); conditions: Arch. Pharm. Res., 11, 312-314 (1988); cited from earlier work
T1 construct: host or cells: lens

[1] = Lacrimation stimulating activity of odorant substances in mice; format: in vivo; conditions: for Change in lacrimation output after 15 minutes (%): 30 mg/kg into the caudal vein, relative to the average of two measurements before administration
Procedure: Then, using (R)-(−)-carvone, (+)-pregon, borneol, trans-4-methylcyclohexanol, and menthol, all of which are odorant substances, each dissolved in 0.1% hydrogenated castor oil-saline, the lacrimation-stimulating activities of these substances were evaluated in vivo. The method used was as follows.
The tear fluid was collected from the left eye of mice at 15-min intervals using a glass microcapillary tube (aspiration capacity 0.5 μL/32 mm). The amount of aspirated tear fluid was measured in length (mm) using calipers and converted to μL for use as a marker of lacrimation output. Mice were anesthetized by intraperitoneal administration of Nembutal Anesthetic Solution (0.2 mL/10 g body weight, dosage 60 mg/kg). After the loss of pain reflex was confirmed in the mice, the measurement of lacrimation output was started. Measurements were invariably carried out at 15-min intervals from the start to the end. After two initial measurements made 15 minutes apart, each test substance (dosage 30 mg/kg) was immediately administered into the caudal vein of mice at a ratio of 0.1 mL/10 g body weight. Thereafter, the collection of tear fluid was carried out at 15-min intervals.
The change in lacrimation output was expressed in the percentage of the lacrimation output at each measurement relative to the average of the lacrimation outputs at two initial measurements prior to administration of each test substance.

[2] = Combined use of an odorant substance and pilocarpine hydrochloride on lacrimation output in mice; format: in vivo
Procedure: The effect of the combined use of (R)-(−)carvone, i.e. the odorant substance used in Example 1, and pillocarpine hydrochloride was evaluated. The method used was as follows. The tear fluid was collected from the left eye of mice at 15-min intervals using a glass microcapillary tube (aspiration capacity 0.5 μL/32 mm). The amount of aspirated tear fluid was measured in length (mm) using calipers and converted to μL for use as a marker of lacrimation output. Mice were anesthetized by intraperitoneal administration of Nembutal Anesthetic Solution (0.2 mL/10 g body weight, dosage 60 mg/kg). After the loss of pain reflex was confirmed in the mice, the measurement of lacrimation output was started. Measurements were invariably carried out at 15-min intervals from the start to the end. After two initial measurements made 15 minutes apart, the test substance was immediately administered into the caudal vein of mice at a ratio of 0.1 mL/10 g body weight. Then, the measurement was repeated at 15-min intervals. Immediately after the measurement of lacrimation output at 15 minutes following administration of the test substance, […] pilocarpine hydrochloride was administered subcutaneously at 0.1 mL/10 g body weight (dosage 5 mg/kg). The collection of tear fluid was further carried out 4 times at 15-min intervals. […] The results on (R)-(−)-carvone (dosage 30 mg/kg) are shown in the graph in FIG. 3. […]

Compound | Change in lacrimation output after 15 minutes (%) [1] [%] | other results
C=C(C)[C@@H]1CC=C(C)C(=O)C1 [(R)-(−)-carvone] | 61.5 | effect on sodium-potassium ATPase (sodium-potassium ATPase): influence; inhibition of lens aldose reductase (lens aldose reductase): inhibit; increase in lacrimation output ([1]; Example 3, 15 to 30 minutes after administration): not less than 60%; change in lacrimation output, combined use with pilocarpine hydrochloride ([2]; (R)-(-)-carvone 30 mg/kg i.v., then 0.005% pilocarpine hydrochloride s.c. (dosage 5 mg/kg) 15 minutes later, FIG. 3): marked increases in lacrimation; duration of the lacrimation effect, combined use with pilocarpine ([2]; Example 4 compared with Example 3): further prolongation of the effect
CC(C)=C1CC[C@@H](C)CC1=O [(+)-pregon] | 70.2 | 
CC1(C)C2CCC1(C)C(O)C2 (stereo not shown) [Borneol, borneol] | 97.5 | 
C[C@H]1CC[C@H](O)CC1 [Trans-4-methylcyclohexanol, trans-4-methylcyclohexanol] | 85.4 | 
CC1CCC(C(C)C)C(O)C1 (stereo not shown) [Menthol, menthol] | 88.1 | 
